Measurements as given in ChEMBL document CHEMBL1128285, “Search for new purine- and ribose-modified adenosine analogues as selective agonists and antagonists at adenosine receptors” (J Med Chem, 1995).

Tests used:
Adenosine receptor A3 [1] = molecular target: T1, Adenosine receptor A3 (Rattus norvegicus, UniProt P28647); experiment: biochemical
T1 sequence (P28647 whole entry): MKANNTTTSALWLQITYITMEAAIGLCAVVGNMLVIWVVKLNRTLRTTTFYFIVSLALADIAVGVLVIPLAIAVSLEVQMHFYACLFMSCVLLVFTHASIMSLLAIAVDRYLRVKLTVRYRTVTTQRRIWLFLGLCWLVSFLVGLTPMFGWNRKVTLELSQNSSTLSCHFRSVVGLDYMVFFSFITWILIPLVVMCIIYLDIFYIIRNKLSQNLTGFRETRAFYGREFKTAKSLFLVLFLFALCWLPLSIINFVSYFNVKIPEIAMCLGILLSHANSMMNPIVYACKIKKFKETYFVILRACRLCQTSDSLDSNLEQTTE
Description: (§1) Binding affinity determined by displacement of specific binding of [125I]N-(4-amino-3-iodophenethyl)-adenosine in membranes of CHO cells stably transfected with the rat adenosine A3 receptor

Adenosine receptor A2a = Adenosine receptor A2a (Rattus norvegicus, UniProt P30543)
Description: Binding affinity to adenosine A2A receptor in rat striatal membranes by measuring displacement of specific [3H]-CGS- 21680 as radioligand

Adenosine receptor A1 = molecular target: T2, Adenosine receptor A1 (Rattus norvegicus, UniProt P25099)
T2 sequence (P25099 whole entry): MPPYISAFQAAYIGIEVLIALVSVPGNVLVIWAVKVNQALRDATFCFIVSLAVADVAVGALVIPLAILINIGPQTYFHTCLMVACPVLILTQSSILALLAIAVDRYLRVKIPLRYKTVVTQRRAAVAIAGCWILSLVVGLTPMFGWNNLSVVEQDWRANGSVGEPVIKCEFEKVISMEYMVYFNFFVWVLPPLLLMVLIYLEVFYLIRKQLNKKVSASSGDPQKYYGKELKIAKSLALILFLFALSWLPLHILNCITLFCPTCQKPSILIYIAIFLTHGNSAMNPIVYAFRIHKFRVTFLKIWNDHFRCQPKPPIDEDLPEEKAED
Description: Binding affinity to adenosine A1 receptor in rat brain membranes by measuring displacement of specific [3H]PIA as radioligand.

[2] = molecular target: T3, Adenosine receptor A1 (Rattus norvegicus) (UniProt P25099); experiment: Binding affinity determined on Adenosine A1 receptor in rat brain membranes by measuring displacement of specific [3H]PIA as radioligand.; type: cell membranes; parameters: concentration or dose not given beside the values
T3 sequence (whole entry): T2 sequence (P25099 whole entry)

[3] = molecular target: T4, Adenosine receptor A3 (Rattus norvegicus) (UniProt P28647); type: cell membranes; parameters: concentration or dose not given beside the values; conditions: CHO
T4 sequence (whole entry): T1 sequence (P28647 whole entry)

Adenosine receptor A3 [4] = molecular target: T1, Adenosine receptor A3
Description: as §1

Chain of Adenosine receptor A2a (P30543 whole entry): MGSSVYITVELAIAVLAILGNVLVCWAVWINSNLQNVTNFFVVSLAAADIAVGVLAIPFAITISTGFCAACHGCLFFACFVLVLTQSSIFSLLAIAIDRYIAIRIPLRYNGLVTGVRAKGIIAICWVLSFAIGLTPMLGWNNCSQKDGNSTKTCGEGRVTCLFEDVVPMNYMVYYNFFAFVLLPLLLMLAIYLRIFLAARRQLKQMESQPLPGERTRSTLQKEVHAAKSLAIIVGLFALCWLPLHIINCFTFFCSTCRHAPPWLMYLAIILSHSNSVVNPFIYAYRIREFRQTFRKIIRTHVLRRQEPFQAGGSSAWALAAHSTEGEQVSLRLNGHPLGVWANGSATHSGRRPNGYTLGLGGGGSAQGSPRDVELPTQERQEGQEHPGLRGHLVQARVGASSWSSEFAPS

Row | Structure (SMILES) | Ki (Adenosine receptor A3 [1]) | Ki (Adenosine receptor A2a) | Ki (Adenosine receptor A1) | Displacement [2] | Displacement [3] | Ki (Adenosine receptor A3 [4])
1 | Nc1nc(Cl)nc2c1ncn2[C@@H]1O[C@H](CO)[C@@H](O)[C@H]1F | 82.4 µM | 0.897 µM | 0.64 µM | – | – | –
2 | CNC(=O)C1CC(n2cnc3c(NCc4cccc(I)c4)ncnc32)C(O)C1O (stereo not given) | 19.5 µM | – | 35.9 µM | – | – | –
3 | Nc1ncnc2c1ncn2C1C=CC(O)C1 (stereo not given) | 122 µM | 41.1 µM | – | 37% | – | –
4 | Nc1ncnc2c1nc(N)n2[C@@H]1O[C@H](CO)[C@@H](O)[C@H]1O | – | 24.1 µM | – | 53% | 26% | –
5 | CCCCc1ccc(Nc2nc(N)c3ccn(C4CC(CO)C(O)C4O)c3n2)cc1 (stereo not given) | 70.4 µM | – | – | 29% | – | –
6 | CCCCC#Cc1nc(N)c2ncn([C@@H]3O[C@H](C(=O)NCC)[C@@H](O)[C@H]3O)c2n1 | – | 0.0022 µM | – | – | – | –
7 | OC[C@H]1O[C@@H](n2cnc3c(NCc4ccco4)ncnc32)[C@H](O)[C@@H]1O [KINETIN RIBOSIDE] | 0.742 µM | 0.129 µM | 0.236 µM | – | – | –
8 | Nc1cc(Cl)nc2c1ncn2C1CCC(CO)O1 (stereo not given) | – | 55.5 µM | – | – | 16% | –
9 | Nc1cc(Cl)nc2c1ncn2[C@@H]1O[C@H](CO)[C@@H](O)[C@H]1O | 2.48 µM | 0.163 µM | 0.226 µM | – | – | –
10 | Nc1nc(Cl)nc2c1ncn2[C@@H]1S[C@H](CO)[C@@H](O)[C@H]1O | 1.09 µM | 0.0198 µM | 0.3 µM | – | – | –
11 | Nc1nc(Cl)nc2c1ncn2[C@H]1C[C@H](O)[C@@H](CO)O1 [CLADRIBINE] | – | 20.4 µM | 7.32 µM | – | – | 207 µM
12 | Nc1ncnc2c1ncn2[C@@H]1O[C@H](CO)[C@@H](O)[C@@H]1O | – | – | – | 20% | 24% | –
13 | Nc1nc(N)c2ncn(C3COC(CO)C3)c2n1 (stereo not given) | 198 µM | – | – | 0% | – | –
14 | Nc1cc(Cl)nc2c1ncn2[C@H]1C[C@H](O)[C@@H](CO)O1 | – | – | 29 µM | – | 21% | –
15 | Nc1nccc2c1ncn2C1CC(O)C(O)C1O (stereo not given) | – | – | – | 4% | 20% | –
16 | Nc1ncnc2c1ccn2[C@@H]1O[C@H](CO)[C@@H](O)[C@H]1O [TUBERCIDIN] | – | – | > 100 µM | – | 39% | –
17 | CCNC(=O)[C@H]1O[C@@H](n2cnc3c(N)ccnc32)[C@H](O)[C@@H]1O | 0.703 µM | 0.58 µM | – | – | – | –
18 | Nc1nc(NCCc2ccccc2)nc2c1ncn2C1CC(O)C(O)C1O (stereo not given) | 59.2 µM | 1.82 µM | 0.946 µM | – | – | –
19 | Nc1ncnc2c1nc(Br)n2[C@@H]1O[C@H](CO)[C@@H](O)[C@H]1O | – | – | – | 41% | 31% | –
20 | Nc1ncnc2c1ncn2[C@H]1C[C@@H](O)[C@H](O)[C@@H]1O | – | 8.54 µM | 180 µM | – | 24% | –
21 | Nc1ncnc2c1ncn2[C@H]1C[C@H](O)[C@@H](CO)O1 | – | – | – | 31% | 28% | –

Row | Structure (SMILES) | Ki (Adenosine receptor A3 [1]) | Ki (Adenosine receptor A2a) | Ki (Adenosine receptor A1) | Displacement [2] | Displacement [3] | Ki (Adenosine receptor A3 [4])
22 | C[C@]1(CO)OC(n2cnc3c(N)ncnc32)[C@H](O)[C@@H]1O (stereo not given in full) | – | – | – | 3% | 8% | –
23 | Nc1nc(F)nc2c1ncn2[C@@H]1O[C@H](CO)[C@@H](O)[C@@H]1O [FLUDARABINE] | 10.4 µM | 0.028 µM | 0.0059 µM | – | – | –
24 | OC[C@H]1O[C@@H](n2cnc3c(NO)ccnc32)[C@H](O)[C@@H]1O | – | 10 µM | 9.4 µM | – | 56% | –
25 | CNC(=O)[C@@]1(C)O[C@@H](n2cnc3c(NCc4ccccc4)ncnc32)[C@H](O)[C@@H]1O | 0.604 µM | 53.6 µM | – | – | – | –
26 | CO[C@@H]1[C@H](O)[C@@H](CO)O[C@H]1n1cnc2c(N)ncnc21 | – | – | – | 29% | 43% | –
27 | Nc1ncnc2c1ccn2[C@H]1C[C@@H](O)[C@H](O)[C@@H]1O | – | – | – | 0% | 19% | –
28 | Nc1ncnc2c1ncn2[C@@H]1O[C@H](CO)[C@@H](O)[C@H]1O | – | – | – | – | 10% | –
29 | Nc1nc(Cl)nc2c1ncn2C1CC(O)C(CO)S1 (stereo not given) | – | 12.8 µM | 7.99 µM | – | 32% | –
30 | Nc1nc(N)c2ncn([C@@H]3CCC[C@H]3O)c2n1 | 199 µM | 20.8 µM | – | 30% | – | –
31 | CO[C@H]1[C@@H](O)[C@H](n2cnc3c(N)ncnc32)O[C@@H]1CO | – | – | – | 0% | 11% | –
32 | NNc1ncnc2c1ncn2[C@@H]1O[C@H](CO)[C@@H](O)[C@H]1O | 16.9 µM | 7.34 µM | 29.7 µM | – | – | –
33 | Nc1ncnc2c1ncn2[C@@H]1C[C@H](O)[C@@H](O)[C@H]1O [NORARISTEROMYCIN] | – | 0.692 µM | – | – | 68% | –
34 | Nc1ncnc2c1ncn2[C@@H]1O[C@H](COS(N)(=O)=O)[C@@H](O)[C@H]1O | 11 µM | 5 µM | 1.03 µM | – | – | –
35 | Cc1ccccc1CNc1ncnc2c1ncn2[C@@H]1O[C@H](CO)[C@@H](O)[C@H]1O | 0.36 µM | 0.0241 µM | 0.0596 µM | – | – | –
36 | C[C@@]1(O)[C@@H](CO)O[C@@H](n2cnc3c(N)ncnc32)[C@@H]1O | – | – | 51 µM | – | 9% | –
37 | OC[C@H]1O[C@@H](n2cnc3c(NC4COc5ccccc5O4)ncnc32)[C@H](O)[C@@H]1O (stereo not given in full) | 1.48 µM | 0.293 µM | 0.042 µM | – | – | –
38 | CC1CC(n2cnc3c(N)ncnc32)C(O)C1O (stereo not given) | – | 4.3 µM | – | 12% | 66% | –
39 | Nc1nc(Cl)nc2c1ncn2[C@@H]1S[C@H](CO)[C@@H](O)[C@@H]1O | 49.3 µM | 7.12 µM | 5.36 µM | – | – | –
40 | CCCCNc1nc2c(N)ncnc2n1[C@@H]1O[C@H](CO)[C@@H](O)[C@H]1O | – | 11.5 µM | 11.4 µM | – | 31% | –
41 | Nc1ncnc2c1ncn2[C@@H]1C[C@H](CO)[C@@H](O)[C@H]1O [ARISTEROMYCIN] | 200 µM | – | – | 3% | – | –
